Source: PMC8429728, “TNK1 is a ubiquitin-binding and 14-3-3-regulated kinase that can be targeted to block tumor growth” (Nature Communications, 2021)
Where two headings read alike, the source gives them in different places.

Key:
Assay in all cases: biochemical
Design in all cases: Reaction Biology 371-kinase panel at Km ATP, per cent enzyme activity relative to DMSO, single dose in duplicate
AKT2 = AKT2 (Homo sapiens, UniProt P31751); conditions: duplicate measurements, Km ATP
Summary of the method: (§1)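 First, kinases from a 371-member panel were exposed in vitro to 300 nM inhibitor. Next, % enzyme activity versus DMSO was computed. Finally, IC50s were derived by sigmoidal dose-response fitting with variable slope and a zero bottom constraint.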

BRSK2 = BRSK2 (Homo sapiens, UniProt Q8IWQ3); conditions: duplicate measurements, Km ATP
Summary of the method: as §1

CAMK1g = CAMK1g (Homo sapiens, UniProt Q96NX5); conditions: duplicate measurements, Km ATP
Summary of the method: as §1

EGFR = EGFR (Homo sapiens, UniProt P00533); conditions: duplicate measurements, Km ATP
Summary of the method: as §1

FMS = biological target: T1, FMS (Homo sapiens, UniProt P07333); conditions: duplicate measurements, Km ATP
T1 construct: gene CSF1R
Summary of the method: as §1

HCK = HCK (Homo sapiens, UniProt P08631); conditions: duplicate measurements, Km ATP
Summary of the method: as §1

HIPK3 = HIPK3 (Homo sapiens, UniProt Q9H422); conditions: duplicate measurements, Km ATP
Summary of the method: as §1

KHS/MAP4K5 = KHS/MAP4K5 (Homo sapiens, UniProt Q9Y4K4); conditions: duplicate measurements, Km ATP
Summary of the method: as §1

MAPKAPK2 = MAPKAPK2 (Homo sapiens, UniProt P49137); conditions: duplicate measurements, Km ATP
Summary of the method: as §1

MEK3 = biological target: T2, MEK3 (Homo sapiens, UniProt P46734); conditions: duplicate measurements, Km ATP
T2 construct: gene MAP2K3
Summary of the method: as §1

PKCa = biological target: T3, PKCa (Homo sapiens, UniProt P17252); conditions: duplicate measurements, Km ATP
T3 construct: gene PRKCA
Summary of the method: as §1

PKD2/PRKD2 = PKD2/PRKD2 (Homo sapiens, UniProt Q9BZL6); conditions: duplicate measurements, Km ATP
Summary of the method: as §1

PKG1a = biological target: T4, PKG1a (Homo sapiens, UniProt Q13976); conditions: duplicate measurements, Km ATP
T4 construct: gene PRKG1; isoform alpha
Summary of the method: as §1

SGK1 = SGK1 (Homo sapiens, UniProt O00141); conditions: duplicate measurements, Km ATP
Summary of the method: as §1

SGK2 = SGK2 (Homo sapiens, UniProt Q9HBY8); conditions: duplicate measurements, Km ATP
Summary of the method: as §1

SIK3 = SIK3 (Homo sapiens, UniProt Q9Y2K2); conditions: duplicate measurements, Km ATP
Summary of the method: as §1

SNARK/NUAK2 = SNARK/NUAK2 (Homo sapiens, UniProt Q9H093); conditions: duplicate measurements, Km ATP; read-out: % Enzyme Activity (relative to DMSO controls) / TP-0005801 (0.3µM) / Data 1
Summary of the method: as §1

TNIK = TNIK (Homo sapiens, UniProt Q9UKE5); conditions: duplicate measurements, Km ATP
Summary of the method: as §1

TYRO3/SKY = TYRO3/SKY (Homo sapiens, UniProt Q06418); conditions: duplicate measurements, Km ATP; read-out: % Enzyme Activity (relative to DMSO controls) / TP-0005801 (0.3µM) / Data 1
Summary of the method: as §1

c-MER = biological target: T5, c-MER (Homo sapiens, UniProt Q12866); conditions: duplicate measurements, Km ATP
T5 construct: gene MERTK
Summary of the method: as §1

[1] = read-out: % Enzyme Activity (relative to DMSO controls) / TP-0005801 (0.3µM) / Data 1
[2] = read-out: % Enzyme Activity (relative to DMSO controls) / TP-0005801 (0.3µM) / Data 2

Sequence of EGFR (P00533 whole entry): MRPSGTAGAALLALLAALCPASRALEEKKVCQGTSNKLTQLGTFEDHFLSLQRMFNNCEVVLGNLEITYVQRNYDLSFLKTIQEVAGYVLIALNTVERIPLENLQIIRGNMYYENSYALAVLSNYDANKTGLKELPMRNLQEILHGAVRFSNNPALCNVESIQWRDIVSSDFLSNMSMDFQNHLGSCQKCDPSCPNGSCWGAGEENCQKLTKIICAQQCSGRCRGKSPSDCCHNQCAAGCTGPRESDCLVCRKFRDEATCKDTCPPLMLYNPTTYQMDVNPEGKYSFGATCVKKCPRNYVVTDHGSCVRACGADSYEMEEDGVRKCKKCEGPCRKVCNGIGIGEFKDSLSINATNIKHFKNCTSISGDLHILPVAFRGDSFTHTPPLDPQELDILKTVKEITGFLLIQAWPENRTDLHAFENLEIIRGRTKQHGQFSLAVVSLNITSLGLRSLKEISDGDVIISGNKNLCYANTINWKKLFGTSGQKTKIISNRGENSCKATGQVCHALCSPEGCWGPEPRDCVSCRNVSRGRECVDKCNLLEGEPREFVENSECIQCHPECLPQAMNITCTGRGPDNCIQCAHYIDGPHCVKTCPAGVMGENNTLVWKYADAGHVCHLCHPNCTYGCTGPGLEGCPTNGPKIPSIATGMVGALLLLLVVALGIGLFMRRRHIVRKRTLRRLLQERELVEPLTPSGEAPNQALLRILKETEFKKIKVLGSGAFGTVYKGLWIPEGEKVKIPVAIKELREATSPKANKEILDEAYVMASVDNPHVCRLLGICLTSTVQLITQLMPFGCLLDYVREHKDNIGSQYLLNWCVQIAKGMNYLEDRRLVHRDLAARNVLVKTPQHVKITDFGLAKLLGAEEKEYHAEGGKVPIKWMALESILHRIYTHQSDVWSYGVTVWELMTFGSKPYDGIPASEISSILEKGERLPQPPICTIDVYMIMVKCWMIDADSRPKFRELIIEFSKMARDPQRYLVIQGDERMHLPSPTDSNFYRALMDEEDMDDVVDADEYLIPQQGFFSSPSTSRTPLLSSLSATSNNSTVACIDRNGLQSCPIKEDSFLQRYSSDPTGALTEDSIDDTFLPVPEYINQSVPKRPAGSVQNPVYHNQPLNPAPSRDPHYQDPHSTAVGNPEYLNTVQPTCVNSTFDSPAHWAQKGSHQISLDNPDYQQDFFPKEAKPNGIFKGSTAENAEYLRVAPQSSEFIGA
Sequence of SGK2 (Q9HBY8 whole entry): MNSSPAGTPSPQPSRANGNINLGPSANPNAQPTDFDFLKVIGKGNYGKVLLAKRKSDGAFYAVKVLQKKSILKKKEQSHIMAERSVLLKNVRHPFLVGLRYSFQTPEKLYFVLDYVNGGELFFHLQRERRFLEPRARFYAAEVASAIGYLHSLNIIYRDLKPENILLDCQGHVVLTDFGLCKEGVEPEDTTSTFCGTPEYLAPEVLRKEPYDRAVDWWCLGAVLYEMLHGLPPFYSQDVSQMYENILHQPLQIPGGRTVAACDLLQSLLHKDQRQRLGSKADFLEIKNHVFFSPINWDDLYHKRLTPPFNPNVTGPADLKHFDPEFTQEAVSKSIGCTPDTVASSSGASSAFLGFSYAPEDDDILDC
Sequence of BRSK2 (Q8IWQ3 whole entry): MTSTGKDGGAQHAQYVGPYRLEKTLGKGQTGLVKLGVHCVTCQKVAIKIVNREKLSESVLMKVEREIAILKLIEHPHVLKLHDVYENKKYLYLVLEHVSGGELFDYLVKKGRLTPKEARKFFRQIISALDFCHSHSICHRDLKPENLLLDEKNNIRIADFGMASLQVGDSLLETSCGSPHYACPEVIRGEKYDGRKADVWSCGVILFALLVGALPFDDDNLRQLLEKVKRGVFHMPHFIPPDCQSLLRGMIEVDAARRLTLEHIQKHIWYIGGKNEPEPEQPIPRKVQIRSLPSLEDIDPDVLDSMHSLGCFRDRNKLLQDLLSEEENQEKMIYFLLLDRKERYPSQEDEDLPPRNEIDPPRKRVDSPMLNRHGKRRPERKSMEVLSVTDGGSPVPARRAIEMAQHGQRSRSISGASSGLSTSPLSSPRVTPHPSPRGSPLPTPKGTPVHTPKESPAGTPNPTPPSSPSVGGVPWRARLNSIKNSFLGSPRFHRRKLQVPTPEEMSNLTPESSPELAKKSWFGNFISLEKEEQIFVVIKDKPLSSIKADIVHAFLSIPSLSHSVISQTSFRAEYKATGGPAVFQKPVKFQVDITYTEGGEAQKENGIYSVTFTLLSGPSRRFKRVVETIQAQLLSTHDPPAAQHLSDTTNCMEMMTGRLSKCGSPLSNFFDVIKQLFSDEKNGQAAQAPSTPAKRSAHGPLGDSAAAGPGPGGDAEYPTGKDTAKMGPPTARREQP
Sequence of AKT2 (P31751 whole entry): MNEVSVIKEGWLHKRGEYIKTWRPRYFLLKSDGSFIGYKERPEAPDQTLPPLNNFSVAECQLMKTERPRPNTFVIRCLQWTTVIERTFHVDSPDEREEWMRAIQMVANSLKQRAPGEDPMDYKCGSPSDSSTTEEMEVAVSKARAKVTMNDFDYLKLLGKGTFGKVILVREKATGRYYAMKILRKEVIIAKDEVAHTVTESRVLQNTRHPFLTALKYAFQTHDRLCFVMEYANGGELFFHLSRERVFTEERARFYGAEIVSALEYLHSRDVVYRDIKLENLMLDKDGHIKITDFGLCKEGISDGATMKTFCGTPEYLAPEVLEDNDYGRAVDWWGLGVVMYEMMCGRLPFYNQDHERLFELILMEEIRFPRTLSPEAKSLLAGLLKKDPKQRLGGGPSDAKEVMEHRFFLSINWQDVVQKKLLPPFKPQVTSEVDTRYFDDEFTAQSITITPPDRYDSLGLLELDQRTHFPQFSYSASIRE
T1 sequence (P07333 whole entry): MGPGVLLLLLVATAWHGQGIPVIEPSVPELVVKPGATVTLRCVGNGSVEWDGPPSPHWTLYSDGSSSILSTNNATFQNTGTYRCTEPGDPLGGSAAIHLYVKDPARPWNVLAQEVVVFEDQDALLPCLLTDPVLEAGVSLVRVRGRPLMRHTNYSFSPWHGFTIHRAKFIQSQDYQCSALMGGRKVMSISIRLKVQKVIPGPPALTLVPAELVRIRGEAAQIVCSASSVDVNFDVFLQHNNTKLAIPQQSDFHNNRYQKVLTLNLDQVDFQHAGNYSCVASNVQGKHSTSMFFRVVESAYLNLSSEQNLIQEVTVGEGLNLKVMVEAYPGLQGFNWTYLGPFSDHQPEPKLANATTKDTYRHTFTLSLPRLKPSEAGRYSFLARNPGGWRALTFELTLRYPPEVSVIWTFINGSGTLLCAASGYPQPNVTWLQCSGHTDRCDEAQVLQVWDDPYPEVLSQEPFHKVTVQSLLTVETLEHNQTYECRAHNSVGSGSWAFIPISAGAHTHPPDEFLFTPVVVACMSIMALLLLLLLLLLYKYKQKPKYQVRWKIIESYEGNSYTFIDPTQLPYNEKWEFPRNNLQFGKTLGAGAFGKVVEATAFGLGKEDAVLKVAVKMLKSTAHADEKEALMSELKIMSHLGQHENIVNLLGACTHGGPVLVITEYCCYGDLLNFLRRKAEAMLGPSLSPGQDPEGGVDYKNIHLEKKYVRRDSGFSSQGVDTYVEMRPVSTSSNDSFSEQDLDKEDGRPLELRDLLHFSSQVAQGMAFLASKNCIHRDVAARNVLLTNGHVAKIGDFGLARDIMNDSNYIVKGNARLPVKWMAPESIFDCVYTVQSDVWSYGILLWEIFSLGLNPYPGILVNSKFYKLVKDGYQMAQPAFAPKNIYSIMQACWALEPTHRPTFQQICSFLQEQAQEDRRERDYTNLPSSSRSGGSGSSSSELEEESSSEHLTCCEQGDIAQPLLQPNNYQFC
Sequence of HCK (P08631 whole entry): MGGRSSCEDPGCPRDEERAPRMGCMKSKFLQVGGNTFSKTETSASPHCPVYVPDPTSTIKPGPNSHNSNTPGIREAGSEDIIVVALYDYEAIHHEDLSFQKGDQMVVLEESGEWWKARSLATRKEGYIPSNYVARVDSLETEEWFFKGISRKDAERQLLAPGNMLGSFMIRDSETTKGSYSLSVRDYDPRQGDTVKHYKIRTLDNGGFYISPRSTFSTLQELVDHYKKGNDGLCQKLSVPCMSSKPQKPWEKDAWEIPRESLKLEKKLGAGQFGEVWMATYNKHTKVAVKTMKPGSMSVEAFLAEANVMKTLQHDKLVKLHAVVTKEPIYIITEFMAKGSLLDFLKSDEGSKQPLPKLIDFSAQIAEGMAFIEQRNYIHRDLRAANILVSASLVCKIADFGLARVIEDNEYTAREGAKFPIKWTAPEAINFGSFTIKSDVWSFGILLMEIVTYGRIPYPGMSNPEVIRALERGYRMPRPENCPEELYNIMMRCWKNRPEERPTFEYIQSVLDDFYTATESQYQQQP

COc1cc(N2CCN(C)CC2)c(C)cc1Nc1ncc(Br)c(Nc2cccnc2N(C)C)n1 [TP-5801]
remaining activity at 0.3 µM (AKT2; [1]): 100%
remaining activity at 0.3 µM (AKT2; [2]): 99.9%
remaining activity at 0.3 µM (BRSK2; [1]): 119%
remaining activity at 0.3 µM (BRSK2; [2]): 116%
remaining activity at 0.3 µM (CAMK1g; [1]): 99%
remaining activity at 0.3 µM (CAMK1g; [2]): 97.4%
remaining activity at 0.3 µM (EGFR; [1]): 97.2%
remaining activity at 0.3 µM (EGFR; [2]): 96%
remaining activity at 0.3 µM (FMS; [1]): 56.3%
remaining activity at 0.3 µM (FMS; [2]): 55.6%
remaining activity at 0.3 µM (HCK; [1]): 105%
remaining activity at 0.3 µM (HCK; [2]): 102%
remaining activity at 0.3 µM (HIPK3; [1]): 91.9%
remaining activity at 0.3 µM (HIPK3; [2]): 85.6%
remaining activity at 0.3 µM (KHS/MAP4K5; [1]): 90%
remaining activity at 0.3 µM (KHS/MAP4K5; [2]): 87%
remaining activity at 0.3 µM (MAPKAPK2; [1]): 99%
remaining activity at 0.3 µM (MAPKAPK2; [2]): 96.4%
remaining activity at 0.3 µM (MEK3; [1]): 174%
remaining activity at 0.3 µM (MEK3; [2]): 173%
remaining activity at 0.3 µM (PKCa; [1]): 98.6%
remaining activity at 0.3 µM (PKCa; [2]): 98%
remaining activity at 0.3 µM (PKD2/PRKD2; [1]): 66.5%
remaining activity at 0.3 µM (PKD2/PRKD2; [2]): 64.3%
remaining activity at 0.3 µM (PKG1a; [1]): 87.6%
remaining activity at 0.3 µM (PKG1a; [2]): 85.6%
remaining activity at 0.3 µM (SGK1; [1]): 91.7%
remaining activity at 0.3 µM (SGK1; [2]): 91%
remaining activity at 0.3 µM (SGK2; [1]): 93.7%
remaining activity at 0.3 µM (SGK2; [2]): 92.7%
remaining activity at 0.3 µM (SIK3; [1]): 96.1%
remaining activity at 0.3 µM (SIK3; [2]): 93.9%
remaining activity at 0.3 µM (SNARK/NUAK2): 30.2%
remaining activity at 0.3 µM (TNIK; [1]): 49.6%
remaining activity at 0.3 µM (TNIK; [2]): 48.7%
remaining activity at 0.3 µM (TYRO3/SKY): 105%
remaining activity at 0.3 µM (c-MER; [1]): 106%
remaining activity at 0.3 µM (c-MER; [2]): 104%
